Values quoted from earlier work, collected in US10959921B2, “Emulsifying system for microemulsions with high skin tolerance” (Henkel AG & Co. KGaA, priority 2017, dated 2021).

Conditions: concentrations above about 1.5 wt. %

For lauryl glucoside, the “Skin tolerance in leave-on applications” value is given as “skin intolerances”.
